Starred links: 1 amine or outer side, 2 acyl side, 3 side chain; linkers in the order of their positions; H or OH if unused. Non-standard residues stand in square brackets, D forms with d. Residues, ends and D or L forms follow the SMILES beside them. *: point of attachment. X1 = O=C([C@H]1CSC([C@@H](Cc2ccccc2)N[*:1])=N1)[*:2]; Allyl(1,1-Me2) = C=CC(C)(C)*
Columns and labels:
[1] = biological target: wild-type HIV-1 integrase (Human immunodeficiency virus type 1 group M subtype B, UniProt P04585); assay type: biochemical; settings: at 100 µg/mL
[2] = tested on: HIV-infected 1A2 cells (a subclone of CEM-SS TART cells); experiment: Cytoprotective cell-based anti-HIV assay; settings: at 78 µM
[3] = cited from earlier work
[4] = tested on: adipocyte differentiation; settings: cited from earlier work
[5] = tested on: HIV integrase; settings: cited from earlier work

SMILES: C=CC(C)(C)O[C@H](C)[C@@H]1NC(=O)[C@H]2CSC(=N2)[C@@H](Cc2ccccc2)NC(=O)[C@@H]2CCCN2C(=O)[C@H](CO)NC(=O)[C@H](CC(C)C)NC1=O [Compound 1, Mollamide E] (cyclo(LSP[X1]T(Allyl(1,1-Me2))))
- HIV-1 integrase inhibition at single concentration [1]: no activity
- HIV inhibition in cytoprotective assay at single concentration [2]: did not show any inhibition

SMILES: O=C(NCCc1ccccc1)NCCc1ccccc1C(=O)NCCc1ccccc1 [Compound 3, Molleurea A]
- HIV-1 integrase inhibition at single concentration [1]: no activity

SMILES: O=C(NCCc1ccccc1)NCCc1ccccc1 [N, N’-diphenethylurea]
- Antidepressant action [3]: act as an antidepressant
- Promotion of adipocyte differentiation [4]: promote adipocyte differentiation

SMILES: CC(C)C[C@@H]1NC(=O)[C@@H]2CCCN2C(=O)[C@H](C(C)C)NC(=O)c2csc(n2)CNC(=O)c2csc(n2)[C@H](CCC(N)=O)NC1=O [dolastatin 3]
- HIV integrase inhibition activity [5]: HIV integrase inhibition activity

Reference: PMC4176947 (Journal of natural products, 2012)
